Reference: patent US20230277503A1, “COMPOSITIONS AND METHODS TO REDUCE PATHOGENESIS” (priority 2017, published 2023)
Entries after “also recorded” stand apart in the source; their conditions may differ. Like-named read-outs stand apart in the source and are kept apart here. Marks after values point to notes of the source that are not given here.

Assays:
[1] = system: human microvascular endothelial cells (HMEC); experiment: HMEC spheroid vascular-like tubule outgrowth; type: cell-based; conditions: matrigel with VEGF; serotonin 50 nM, R-DOI 100 nM, TCB2 500 nM
Method: HMEC cells were cultured in specially coated U-shaped bottom 96 well plates in order to form tissue-like 3 dimension spheroids. Spheroids were subsequently implanted into wells that contained matrigel basement membranes supplemented with vascular endothelial growth factor (VEGF) or starved (Starvation control-no VEGF). Culture media was treated with either serotonin (50 nM), (R-DOI (100 nM) or TCB2 (500 nM) outgrowth from the spheroids of vascular-like structures was monitored microscopically.

[2] = system: VEGF-mediated neovascularization from aortic rings; experiment: Aortic ring neovascularization assay; type: cell-based, mice; conditions: for blood vessel sprouting, branching and formation from aortic rings: VEGF-containing endothelial growth medium, matrigel
Method: Referring to FIG. 34 for example, the aortas from sacrificed mice are removed, cleaned, and dissected into 1 mm tubule sections. These aortic rings are implanted into matrigel basement membrane and incubated in endothelial cell growth medium containing vascular endothelial growth factor. Aortic rings are continuously incubated in the presence of 5HT2A receptor agonists and antagonists at the indicated concentrations and examined by microscopy daily. Extensive sprouting, branching and networking of new blood vessels can be observed in control aortic rings, where multiple images needed to be stitched together in order to capture the extensive blood vessel network formed.

[3] = system: human microvascular endothelial cells; experiment: Endothelial tubule formation assay; type: cell-based; conditions: geltrex basement membrane
Method: Referring to FIG. 35 for example, to assess the ability of 5-HT2A agonists and antagonists to inhibit capillary-like endothelial tube formation, human microvascular endothelial cells were seeded into geltrex basement membrane and overlaid with endothelial growth medium containing vascular endothelial growth factor (VEGF) and the indicated drugs. Both 5HT2A agonists and antagonists disrupted formation of endothelial tube networks, the formation of branching, complex capillary structures, and interconnectivity of capillary tubes.

asthma in a rat model = experiment: Rat model of asthma (OVA); type: in vivo; conditions: OVA (ovalbumin) allergen
Excerpt: OVA is ovalbumin, a frequently used allergen that induces robust, allergic pulmonary inflammation in laboratory rodents.

[4] = system: TNFα-induced inflammatory gene and protein expression; conditions: intraperitoneal, doses up to 30-fold below the CNS behaviorally-active threshold dose; aorta and intestine; cited from earlier work
HSV-1 RE = experiment: Murine model of HSV-1 (RE) chronic herpetic keratitis; type: in vivo, BALB/c mice; conditions: for signs of disease, including stromal opacity and corneal neovascularization: acute herpetic keratitis stage; for weight loss associated with HSV-1 ocular infection: day 5 to 11 post infection; for ocular histology (H&E, central cornea): day 15 post infection; for # Deceased / # Eyes showing signs of disease / Clinically clear eyes: day 15 post-infection, topical drops 4x per day for 8 days, (R)-DOI 500 μM; for stromal opacity score: following day 8 post infection; for clinical scores (slit lamp score, corneal opacity, neovascularization): up to 15 DPI, versus control BSS
Excerpt: (§1) 16 BALB/c mice, which can respond with a TH2 biased immune response, were randomly sorted into 3 treatment arms: 1) Ophthalmic Balanced Saline Solution diluted 1:1 in PBS (BSS+PBS) treated (6 mice); 2) DOI treated (XTPFDOI) (5 mice); 3) 1.0% TFT (TFT+PBS) (5 mice). Animals were anesthetized with […]:ketamine and both eyes were scarified in a cross hatch pattern using a curved needle. Immediately following ocular scarification, eyes were inoculated with a 3 microliter drop containing 10,000 plaque forming units (PFU) of Herpes Simplex Virus type 1 (HSV-1) RE strain. The next morning following infection animals were treated with the respective treatment as assigned within their treatment arm. Treatments were applied topically to the eye in a 4 microliter drop. Drops were applied 4× daily from 9 am to 5:30 pm starting immediately following clinical scoring. Treatments were applied for the first 8 days post infection and then stopped on day 8. Clinical scoring was done using a slit lamp biomicroscope magnified at 16× on the days indicated by a single individual masked to the drug treatment parameters. Slit lamp biomicroscopy also included fluorescein exclusion labeling of the corneal surface following scoring of all clinical parameters. Each eye was scored independently. Clinically clear eyes were scored as such if no apparent signs of disease were present in any clinical parameter during the chronic phase.
At day 15 post infection, a stage that will be during chronic immune-associated disease with no virus present, animals were euthanized and the eyes were removed for histology. Random representative eyes were prepared by taking sections through the central cornea and processed by H&E histology for visualization. Sections were examined microscopically and photographed across the central cornea.
BALB/c eyes were scarified and infected with HSV-1 (RE), an HSV-1 strain that causes herpetic keratitis in 100% of ocular infections^31. Starting 24 hours post-infection, topical drops were applied in a masked fashion 4× per day for 8 days. Individual clinical parameters were monitored and scored in a masked fashion for 15 days.
BALB/c eyes were scarified and infected with 10,000 PFU per eye of HSV-1 RE, an HSV-1 strain that causes herpetic keratitis in 100% of ocular infections.
Referring to FIGS. 37-42, for example, individual clinical parameters were monitored and scored in a masked fashion for 15 days post infection. Parameters included weight, death, epiphora, blepharitis, corneal epithelium, corneal neovascularization, stromal opacity, scleral inflammation and fluorescently visualized slitlamp biomicroscopy.
24 hours post infection, topical drops were applied in a masked fashion 4× per day at 4 ul per drop to the surface of the eye. Topical drops consisted of 1% Trifluorthymidine (1% TFT; Viroptic), Ophthalmic Balanced Salt Solution (BSS), or (R)-DOI in Ophthalmic BSS.
as §1, with “preferentially” for “can”, “(BSS)” for “diluted 1:1 in PBS (BSS+PBS)”, “((R)-DOI)” for “(XTPFDOI)”, “TFT” for “TFT (TFT+PBS)”, “Slit lamp biomicroscopy also included fluorescein exclusion labeling of the corneal surface following scoring of all clinical parameters. Each eye was scored independently. Clinically clear eyes were scored as such if no apparent signs of disease were present in any clinical parameter during the chronic phase.” left out

HSV-1 = type: cell-based, mice; conditions: 500 nM; for HSV-1 reactivation and amount of infectious virus shed from latent neurons (PFU/ml/TG): relative to mock/buffer control, 10 days

SMILES | vascular-like tubular growth from HMEC spheroids [1] | blood vessel sprouting, branching and formation from aortic rings [2] | VEGF-mediated human vascular endothelium tubule formation [3] | signs of disease, including stromal opacity and corneal neovascularization (HSV-1 RE) | weight loss associated with HSV-1 ocular infection (HSV-1 RE) | # Deceased (HSV-1 RE) | # Eyes showing signs of disease (HSV-1 RE) | Clinically clear eyes (HSV-1 RE) | stromal opacity score (HSV-1 RE) | clinical scores (slit lamp score, corneal opacity, neovascularization) (HSV-1 RE) | further results
COc1cc(CCN)c(OC)cc1I [2CI, 2-(4-Iodo-2,5-dimethoxyphenyl)ethan-1-amine] | abrogated formation of vascular-like tubular growth | – | – | – | – | – | – | – | – | – | –
O=C(c1ccc(F)cc1)C1CCN(CCCCc2ccccc2)CC1 [4F4PP, reference compound] | – | inhibit VEGF-mediated neovascularization from aortic rings | inhibit VEGF-mediated human vascular endothelium tubule formation | – | – | – | – | – | – | – | –
CCN(CC)C(=O)[C@@H]1C=C2c3cccc4[nH]cc(c34)C[C@H]2N(C)C1 [LSD] | – | – | – | – | – | – | – | – | – | – | symptoms of asthma (asthma in a rat model): can prevent symptoms of asthma
COc1cc(C[C@@H](C)N)c(OC)cc1I [(R)-DOI, (R)-1-(2,5-dimethoxy-4-iodophenyl)-2-aminopropane] | abrogated formation of vascular-like tubular growth | inhibit VEGF-mediated neovascularization from aortic rings; also recorded: inhibited blood vessel sprouting, branching and formation | inhibit VEGF-mediated human vascular endothelium tubule formation | reduced signs of disease | do not experience significant weight loss | 0/5 | 3/10* | 6/10 | increase in stromal opacity was muted | reduced slit lamp scores, corneal opacity and neovascularization | TNFα-induced inflammatory gene and protein expression [4]: potently inhibits TNFα-induced inflammatory gene and protein expression; concentration at which the inhibitory effects began to no longer be as effective ([2]; neovascularization, sprouting, branching, networking): 10 nM; disease relative to control BSS treatment (HSV-1 RE; after day 8, chronic immuno-pathology): significantly reduced disease relative to control BSS treatment; eyes exhibiting complete clinical resolution (HSV-1 RE; by day 15, drops topically applied for 7 days post infection): 60%; corneal neovascularization (HSV-1 RE; compared to control BSS or TFT treated eyes): decreased development of corneal neovascularization; ocular histology (H&E, central cornea) (HSV-1 RE): markedly less disease presentation in all eyes examined; also recorded: most similar to uninfected eyes; ocular histology (H&E, central cornea) (HSV-1 RE; listed as DOI): normal ocular morphology with an absence of clinical signs of ocular disease; clinical scores (slit lamp score, corneal opacity, neovascularization) (HSV-1 RE; listed as DOI): suppressed development of all clinically scored parameters; delay in reactivation of HSV-1 from TGs (HSV-1; relative to mock): 2 fold; HSV-1 reactivation and amount of infectious virus shed from latent neurons (PFU/ml/TG) (HSV-1): inhibits HSV-1 reactivation from latent neurons; also recorded: significantly inhibited the number of reactivating TGs and the amount of infectious virus shed from neurons; HSV-1 reactivation and amount of infectious virus shed from latent neurons (PFU/ml/TG) (HSV-1; listed as DOI): significantly inhibited the degree of reactivation and amount of infectious virus shed from latent neurons
O=c1[nH]c(=O)n([C@H]2C[C@H](O)[C@@H](CO)O2)cc1C(F)(F)F [1% TFT, trifluorothymidine, reference compound] | – | – | – | reduced signs of disease | experienced weight loss associated with HSV-1 ocular infections | 0/5 | 7/10 | 0/10 | markedly increased opacity score | initially controlled ocular disease development relative to control BSS treated eyes | ocular histology (H&E, central cornea) (HSV-1 RE; listed as TFT): immune cell infiltration, thickening of the stroma, neovascularization, and disruption of the corneal epithelial layers
NCCc1c[nH]c2ccc(O)cc12 [serotonin, 5-hydroxytryptamine] | induces vascularization-like replication and tubule growth | – | – | – | – | – | – | – | – | – | –
